Results published in patent US8470765B2, “Polypeptides and antibacterial or antiseptic use of same” (AnGes MG, Inc., priority 2009, dated 2013).
Read-outs that look alike come from different tables or passages of the source. No end group written: not given here.

Experiments:
[1] = system: Alternaria alternata JCM5800; conditions: JCM5800
Fusarium solani JCM11383 = conditions: JCM11383
[2] = system: Pseudomonas aeruginosa ATCC 27853; assay: microbe, parasite or virus in culture; assay type: cell-based
Protocol: (§1) Bacteria (Escherichia coli ATCC 25922, Pseudomonas aeruginosa ATCC 27853, Staphylococcus aureus ATCC29213, Klebsiella pneumoniae JCM 1662, Enterobacter cloacae JCM 1232, Enterobacter aerogenes JCM 1235 and Staphylococcus epidermidis JCM 2414) were inoculated to Mueller-Hinton broth: MHB or LB medium, and cultured at a temperature and period suited for each strain. From the thus obtained colonies, each strain was inoculated to a fresh liquid medium and cultured for 16 to 20 hours. Then an aliquot having a volume (10 to 50 appropriate to each strain was inoculated to a fresh liquid medium and cultured for 4 to 6 hours, followed by the measurement of the absorbance at 600 nm. After comparing the turbidity with McFarland #0.5, the resultant was diluted with a medium. Each strain was added to about 10^5 CFU/mL (final concentration). Each of the peptide solutions to be tested was diluted with MHB to obtain a solution of 128 μg/mL. […] As controls, tobramycin (TOB: aminoglucoside antibiotic), oxacillin (OX:β-lactam antibiotic), meropenem (MEPM: carbapenem antibiotic) and ciprofloxacin (new quinolone antibiotic) were used. […] To a 96-well microtiter plate, 0.1 mL of the inoculation solution and 0.1 mL of the peptide- or positive control-containing medium having the respective concentration were added, and cultured at 37° C. for 16 to 24 hours (or a time period suited for the growth of the respective strain). The well not containing the sample was used as a negative control. After the culturing, the growth was visually observed, and the minimum concentration at which the growth was inhibited was defined as the minimum growth inhibition concentration (MIC). The medium used in this test for bacteria was Mueller-Hinton broth. Independent experiments were carried out twice or more for each strain.

[3] = system: Staphylococcus epidermidis JCM 2414; assay: microbe, parasite or virus in culture; assay type: cell-based
Protocol: as §1

[4] = system: Escherichia coli ATCC 25922; assay: microbe, parasite or virus in culture; assay type: cell-based
Protocol: as §1

[5] = system: Staphylococcus aureus ATCC29213; assay: microbe, parasite or virus in culture; assay type: cell-based
Protocol: as §1

[6] = system: Trichophyton mentagrophytes NBRC6124; conditions: NBRC6124
[7] = system: Fusobacterium nucleatum JCM 11025; conditions: JCM 11025
[8] = system: Actinobacillus actinomycetemcomitans JCM2434
[9] = system: Salmonella typhimurium JCM1652; conditions: JCM1652
[10] = system: Pseudomonas aeruginosa ATCC 27853; assay: ATP Assay (viability at 3 hours), Table 6; assay type: cell-based; conditions: 3 h, 5 μg/mL
Protocol: (§2) Bacteria (Escherichia coli ATCC 25922, Pseudomonas aeruginosa ATCC 27853, Staphylococcus aureus ATCC29213, and Staphylococcus epidermidis JCM 2414) were inoculated to Mueller-Hinton broth: MHB or LB medium, and cultured at a temperature and period suited for each strain. From the thus obtained colonies, each strain was inoculated to a fresh liquid medium and cultured for 16 to 20 hours. Then an aliquot having a volume (10 to 50 μL) appropriate to each strain was inoculated to a fresh liquid medium and cultured for 4 to 6 hours, followed by the measurement of the absorbance at 600 nm. After comparing the turbidity with McFarland #0.5, the resultant was diluted with a medium. Each strain was added to about 10^5 CFU/mL (final concentration).
(§3) Each of the peptide solutions to be tested was diluted with the medium to obtain a solution of 10 μg/mL. As positive controls, tobramycin (TOB), oxacillin (OX) and meropenem (MEPM) were used. By dilution with sterilized purified water to 1.0 mg/mL, positive control-containing media having concentrations of […], respectively for TOB; 0.5, 0.12 and 0.06 μg/mL, respectively, for OX; and 1.0, 0.25, 0.12, 0.06, 0.03 and 0.008 μg/mL respectively, for MEPM, were prepared. To a 96-well microtiter plate, 0.1 mL of the inoculation solution and 0.1 mL of the peptide- or positive control-containing medium having the respective concentration were added, and cultured at 37° C. for 3 hours. The well not containing the sample was used as a negative control. After the culturing, ATP was measured using BacTiter-Glo Microbial Cell Viability Assay kit of PROMEGA, and compared with that in the negative control to obtain a relative value which was defined as a viability. The antibacterial activity was evaluated based on the viability at 3 hours later using ATP as an index.
(§4) The medium used in this test for bacteria was Mueller-Hinton broth. Independent experiments were carried out twice for each strain.

[11] = system: Escherichia coli ATCC 25922; assay: ATP Assay (viability at 3 hours), Table 6; assay type: cell-based; conditions: 3 h, 5 μg/mL
Protocol: as §2, §3, §4

[12] = system: Staphylococcus aureus ATCC29213; assay: ATP Assay (viability at 3 hours), Table 6; assay type: cell-based; conditions: 3 h, 5 μg/mL
Protocol: as §2, §3, §4

[13] = system: Bacteroides fragilis JCM 11019; conditions: Table 4; two tests, first/second value where not identical
[14] = system: Acinetobacter baumanni JCM6841; conditions: JCM6841
[15] = system: Streptococcus pyogenes JCM5674
Candida krusei NBRC1395 = conditions: NBRC1395
[16] = system: Trichophyton rubrum NBRC9185; conditions: NBRC9185
[17] = system: Micrococcus luteus NBRC13867
[18] = system: Salmonella enteritidis IID 604; conditions: IID 604
[19] = system: Bacillus subtilis NBRC3134; conditions: NBRC3134
[20] = system: Enterobacter cloacae JCM 1232; assay type: cell-based; conditions: Table 4; two tests, first/second value where not identical
Protocol: as §1

[21] = system: Aspergillus niger NBRC 9455; conditions: Table 4; two tests, first/second value where not identical
[22] = system: Klebsiella pneumoniae JCM 1662; assay: microbe, parasite or virus in culture; assay type: cell-based
Protocol: as §1

[23] = system: Enterobacter aerogenes JCM 1235; assay: microbe, parasite or virus in culture; assay type: cell-based; conditions: Table 4; two tests, first/second value where not identical
Protocol: as §1

[24] = system: Rhizopus oryzae NBRC 31005; conditions: NBRC 31005
[25] = system: Pseudomonas aeruginosa 6 (clinical strain); assay: microbe, parasite or virus in culture; conditions: Table 4; clinical strain; first/second value where not identical
Protocol: as §2, with “ATCC29213, Klebsiella pneumoniae JCM 1662, Enterobacter cloacae JCM 1232, Enterobacter aerogenes JCM 1235” for “ATCC29213,”, “50” for “50 μL)”
(§5) Further, the antibacterial activities against the clinical strains collected and isolated from infected patients were also examined. The tests were carried out for two methicillin-resistant Staphylococcus (MRSA) (MRSA (i) and (ii)), two methicillin-sensitive Staphylococcus (MSSA) (MSSA (i) and (ii)), five Pseudomonas aeruginosa, Pseudomonas aeruginosa 1, Pseudomonas aeruginosa 6, Pseudomonas aeruginosa 8. Pseudomonas aeruginosa 9 and Pseudomonas aeruginosa 12, totally 9 clinical strains. The MRSA and MSSA clinical strains were tested by the same method as Staphylococcus aureus ATCC29213, and Pseudomonas clinical strains were tested by the same method as Pseudomonas aeruginosa ATCC 27853.
(§6) Each of the peptide solutions to be tested was diluted with MHB to obtain a solution of 128 μg/mL. This solution was serially diluted with the medium to prepare peptide-containing media having concentrations of 128, 64, 32, 16, 8.0, 4.0 and 2.0 μg/mL respectively. […] By dilution with sterilized purified water to 1.0 mg/mL, positive control-containing media having concentrations of 16, 8, 4, 2, 1.0, 0.25, 0.12 and 0.06 μg/mL, respectively for TOB; 0.5, 0.12 and 0.06 μg/mL, respectively, for OX; and 16, 8, 4, 2, 1.0, 0.25, 0.12, 0.06, 0.06, 0.03 and 0.008 μg/mL, respectively, for MEPM, were prepared.
(§7) To a 96-well microtiter plate, 0.1 mL of the inoculation solution and 0.1 mL of the peptide- or positive control-containing medium having the respective concentration were added, and cultured at 37° C. for 16 to 24 hours (or a time period suited for the growth of the respective strain). The well not containing the sample was used as a negative control. After the culturing, the growth was visually observed, and the minimum concentration at which the growth was inhibited was defined as the minimum growth inhibition concentration (MIC).
(§8) The medium used in this test for bacteria was Mueller-Hinton broth. Independent experiments were carried out twice or more for each strain.

[26] = system: Pseudomonas aeruginosa 1 (clinical strain); assay: microbe, parasite or virus in culture; conditions: Table 4; clinical strain; first/second value where not identical
Protocol: as §2, with “ATCC29213, Klebsiella pneumoniae JCM 1662, Enterobacter cloacae JCM 1232, Enterobacter aerogenes JCM 1235” for “ATCC29213,”, “50” for “50 μL)”
as §5, §6, §7, §8

[27] = system: Pseudomonas aeruginosa 12 (clinical strain); assay: microbe, parasite or virus in culture
Protocol: as §2, with “ATCC29213, Klebsiella pneumoniae JCM 1662, Enterobacter cloacae JCM 1232, Enterobacter aerogenes JCM 1235” for “ATCC29213,”, “50” for “50 μL)”
as §5, §6, §7, §8

[28] = system: Pseudomonas aeruginosa 9 (clinical strain); assay: microbe, parasite or virus in culture; conditions: Table 4; clinical strain; first/second value where not identical
Protocol: as §2, with “ATCC29213, Klebsiella pneumoniae JCM 1662, Enterobacter cloacae JCM 1232, Enterobacter aerogenes JCM 1235” for “ATCC29213,”, “50” for “50 μL)”
as §5, §6, §7, §8

[29] = system: Cryptococcus neoformans IFM 46660
[30] = system: Pseudomonas aeruginosa 8 (clinical strain); conditions: Table 4; clinical strain; first/second value where not identical
Protocol: as §2, with “ATCC29213, Klebsiella pneumoniae JCM 1662, Enterobacter cloacae JCM 1232, Enterobacter aerogenes JCM 1235” for “ATCC29213,”, “50” for “50 μL)”
as §5, §6, §7, §8

[31] = Table 4, two tests, first/second value where not identical
[32] = Table 4, clinical strain, first/second value where not identical

Row | Substance | MIC Pseudomonas aeruginosa ([2]; ATCC 27853) [µg/mL] | MIC Staphylococcus epidermidis ([3]; JCM 2414) [µg/mL] | MIC Escherichia coli [4, 31] | MIC Staphylococcus aureus ([5]; ATCC29213) [µg/mL] | Pseudomonas aeruginosa ATP (viability, relative value to negative control) [10] | Escherichia coli ATP (viability, relative value to negative control) [11] | Staphylococcus aureus ATP (viability, relative value to negative control) [12] | MIC Enterobacter cloacae [20] | MIC Aspergillus niger [21] | MIC Klebsiella pneumoniae [22, 31] | MIC Enterobacter aerogenes [23] | MIC Rhizopus oryzae [24] [µg/mL] | MIC Pseudomonas aeruginosa 6 [25] | MIC Pseudomonas aeruginosa 1 [26] | MIC Pseudomonas aeruginosa 9 [28] | MIC Cryptococcus neoformans ([29]; IFM 46660) [µg/mL] | MIC Pseudomonas aeruginosa 8 [30] | MIC Pseudomonas aeruginosa 12 [27, 32] | also measured
1 | Ac-GRLKRMGERLKRKIQKWIRW-NH2 [SRP-19] | 8 | 8 | 8/16 | 8 | 1.6 | 2.9 | 2.1 | – | – | – | – | – | – | – | – | – | – | – | MIC Alternaria alternata [1]: 64 µg/mL; MIC Fusarium solani (Fusarium solani JCM11383): 16 µg/mL; MIC Trichophyton mentagrophytes [6]: 32 µg/mL; MIC Fusobacterium nucleatum [7]: 4 µg/mL; MIC Actinobacillus actinomycetemcomitans [8]: 64 µg/mL; MIC Salmonella Typhimurium [9]: 4 µg/mL; MIC Bacteroides fragilis [13]: 16/8; MIC Acinetobacter baumanni [14]: 32 µg/mL; MIC Streptococcus pyogenes [15]: 16 µg/mL; MIC Candida krusei (Candida krusei NBRC1395): 16 µg/mL; MIC Trichophyton rubrum [16]: 64 µg/mL; MIC Micrococcus luteus [17]: 2 µg/mL; MIC Salmonella Enteritidis [18]: 4 µg/mL; MIC Bacillus subtilis [19]: 2 µg/mL
2 | LKLIFLHRLKRMRKRLKRKL-NH2 [SRP-11] | 16 | 8 | 32/64 | 16 | 0.8 | 3.8 | 0.3 | 128< mg/mL | 8/32 | 64/128 | 32/64 | 8 | 16/32 | 16/32 | 16/32 | 2 | 16/32 | – | MIC Pseudomonas aeruginosa 12 ([27]; 12 (clinical strain)): 16 µg/mL
3 | MLKLIFLHRLKRMRKRLKRK-NH2 [SRP-10] | – | 8 | 32/64 | 16 | 0.9 | 2.4 | 0.2 | 64/128 | 8/16 | 64/128 | 16/128 | 8 | 32/128 | 16/64 | 64/128 | 2 | 64/128 | 16/32 | MIC Pseudomonas aeruginosa [2, 31]: 16/32
4 | MLKLIFLHRLKRMRKRLKRKLR-NH2 [SRP-9] | 16 | – | – | – | 0.8 | 2.6 | 0.2 | 16/64 | 16/32 | – | 16/64 | 8 | 16/64 | 16/32 | 32/128 | – | 8/32 | 16/32 | MIC Klebsiella pneumoniae ([22]; JCM 1662): 64 µg/mL; MIC Staphylococcus epidermidis [3, 31]: 8/32; MIC Escherichia coli ([4]; ATCC 25922): 32 µg/mL; MIC Staphylococcus aureus [5, 31]: 16/32; MIC Cryptococcus neoformans [29, 31]: 1/2
